# Laboratory results taken from US11414419B2, “Substituted purines for the treatment of neurodegenerative and mitochondrial diseases” (Mitokinin, Inc., priority 2017, dated 2022).
# Experiments:
# in vivo = conditions: rat; for AUC(0-inf) / AUC(0-t) / Cmax / half-life / MRT inf / Tmax: male, SD; for AUC(0-inf): AUCINF_pred; for AUC(0-t): AUClast; for half-life: HL_Lambda_z (T1/2); for MRT inf: MRTINF_pred
# Method: Compounds tested were as follows: kinetin (MW=215.21); MTK-115 (MW=243.26); MTK-115D (MW=219.29); MTK-125A (MW=217.27); and MTK-63A (MW=203.24). Formulation concentrations were 0.2 mg/mL for IV delivery; 0.5 mg/mL for PO delivery. Dosing was as follows: IV: 1 mg/kg, 5 mL/kg; PO: 5 mg/kg, 10 mL/kg. Results are as follows:
# Compounds were prepared in a formulation of 4% DMSO, 15% Solutol HS 15, 81% PBS and then administered to male SD rats via oral gavage at 5 mg/kg (n=3 per compound). Plasma draws were taken at 15m, 30m, 1 hr, 2 hr, 4 hr, 8 hr, and 24 hrs, then analyzed by mass spectrometry for presence of the compound. Data were then plotted, and AUC values calculated.
# PINK1 = target: T1, PINK1 (Homo sapiens, UniProt Q9BXM7); test: PINK1-specific mitophagy assay (FACS for lysosomal-positive mt-mKeima); format: cell-based
# T1 construct: expressed in transfected cells; host or cells: HeLa cells, retroviral transduction; they also stably express FRB-Fis1, mt-mKeima and Parkin
# T1 sequence (Q9BXM7 111-581 limits assumed): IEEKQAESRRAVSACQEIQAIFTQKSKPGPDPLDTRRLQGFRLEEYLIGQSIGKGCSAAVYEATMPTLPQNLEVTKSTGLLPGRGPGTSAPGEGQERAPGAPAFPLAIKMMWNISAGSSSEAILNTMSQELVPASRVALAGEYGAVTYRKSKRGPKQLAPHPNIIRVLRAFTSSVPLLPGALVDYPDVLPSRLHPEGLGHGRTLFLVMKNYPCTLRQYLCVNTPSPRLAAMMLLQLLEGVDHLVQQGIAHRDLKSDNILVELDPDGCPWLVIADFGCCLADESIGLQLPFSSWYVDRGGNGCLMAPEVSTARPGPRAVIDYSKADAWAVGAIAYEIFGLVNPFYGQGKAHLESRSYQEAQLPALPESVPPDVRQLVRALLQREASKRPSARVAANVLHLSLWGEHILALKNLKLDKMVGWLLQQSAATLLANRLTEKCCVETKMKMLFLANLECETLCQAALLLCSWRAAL
# Text: mt-mKeima was cloned into a pCHAC-MCS-1-IRES-MCS2 vector. PINK1D110-YFP-23FKBP wild-type was cloned into pRetroQ-AcGFP-C1 at NheI/XhoI sites by Gibson assembly kit. The HA-tag was removed, and stop codon introduced. Wild-type HeLa cells stably expressing FRB-Fis1, mt-mKeima, Parkin, and wild-type PINK1D110-YFP-23FKBP were generated using retroviral transduction as described previously. Flag/HA-receptors were stably expressed in these cells by lentivirus transduction as described previously then treated with varying concentrations (see Table 2) of the experimental compounds for 5 days, followed by 1 uM rapalog for 24 h. Cells were then resuspended in sorting buffer (145 mM NaCl, 5 mM KCl, 1.8 mM CaCl2, 0.8 mM MgCl2, 10 mM HEPES, 10 mM glucose, 0.1% BSA) containing […] DAPI. Analysis was performed using Summit software (v6.2.6.16198) on a Beckman Coulter MoFlo Astrios cell sorter. Measurements of lysosomal mt-mKeima were made using dual-excitation ratiometric pH measurements at 488 (pH7) and 561 (pH4) nm lasers with 620/29 nm and 614/20 nm emission filters, respectively. For each sample, 50,000 events were collected and subsequently gated for YFP/mt-mKeima double-positive cells that were DAPI-negative. Data were analysed using FlowJo (v10, Tree Star).
# [1] = test system: Parkin-expressing HeLa cells with intact wt PINK1; test: Cytotoxicity experiments (DAPI stain, FACS); format: cell-based; conditions: 50 uM, 24 hrs, versus MTK-64, FIG. 6
# Method: Compounds were incubated for 24 hrs at 50 uM in Parkin-expressing HeLa cells with intact wt PINK1. After 24 hrs, cells were DAPI stained according to standard protocols and assayed via FACS.
# [2] = rapalog + experimental compound 12.5 uM
# [3] = rapalog + experimental compound 25 uM
# [4] = rapalog + experimental compound 50 uM
SMILES,"AUC(0-inf) (in vivo; iv, 1 mg/kg) [µg·h/mL]","AUC(0-t) (in vivo; iv, 1 mg/kg) [µg·h/mL]","Cmax (in vivo; iv, 1 mg/kg) [µg/mL]","half-life (in vivo; iv, 1 mg/kg) [min]","MRT inf (in vivo; iv, 1 mg/kg) [min]","Tmax (in vivo; iv, 1 mg/kg, Tmax) [min]","Tmax (in vivo; po, 5 mg/kg) [min]","AUC(0-inf) (in vivo; po, 5 mg/kg) [µg·h/mL]","AUC(0-t) (in vivo; po, 5 mg/kg) [µg·h/mL]","Cmax (in vivo; po, 5 mg/kg) [µg/mL]","half-life (in vivo; po, 5 mg/kg) [min]","MRT inf (in vivo; po, 5 mg/kg) [min]","Tmax (in vivo; po, 5 mg/kg, Tmax) [min]","oral PK, AUC versus comparator (in vivo; 5 mg/kg)",percentage of cells undergoing mitophagy (PINK1; [2]) [%],percentage of cells undergoing mitophagy (PINK1; [3]) [%],percentage of cells undergoing mitophagy (PINK1; [4]) [%],"increase in activity (mitophagy) (PINK1; versus MTX-63H (hydrogen instead of methyl at R3), FIG. 5) [%]",toxicity versus mono-substituted comparator [1]
CCCCNc1nc(C)nc2[nH]c(C)nc12 [MTK-115D],0.47,0.469,1.44,7.2,10.2,4.8,,,,,39.6,182,,,16.7,18.1,18.6,~40,
Cc1nc(NCc2ccco2)c2nc(C)[nH]c2n1 [MTK-115],,,1.85,23.4,24.6,4.8,,5.45,5.3,1.04,69,203,240,,13.4,16,18.4,,substantial decrease in toxicity

# Continued, in another order:
"AUC(0-inf) (in vivo; iv, 1 mg/kg) [µg·h/mL]","AUC(0-t) (in vivo; iv, 1 mg/kg) [µg·h/mL]","Cmax (in vivo; iv, 1 mg/kg) [µg/mL]","half-life (in vivo; iv, 1 mg/kg) [min]","MRT inf (in vivo; iv, 1 mg/kg) [min]","Tmax (in vivo; iv, 1 mg/kg, Tmax) [min]","Tmax (in vivo; po, 5 mg/kg) [min]","AUC(0-inf) (in vivo; po, 5 mg/kg) [µg·h/mL]","AUC(0-t) (in vivo; po, 5 mg/kg) [µg·h/mL]","Cmax (in vivo; po, 5 mg/kg) [µg/mL]","half-life (in vivo; po, 5 mg/kg) [min]","MRT inf (in vivo; po, 5 mg/kg) [min]","Tmax (in vivo; po, 5 mg/kg, Tmax) [min]","oral PK, AUC versus comparator (in vivo; 5 mg/kg)",percentage of cells undergoing mitophagy (PINK1; [2]) [%],percentage of cells undergoing mitophagy (PINK1; [3]) [%],percentage of cells undergoing mitophagy (PINK1; [4]) [%],"increase in activity (mitophagy) (PINK1; versus MTX-63H (hydrogen instead of methyl at R3), FIG. 5) [%]",SMILES,toxicity versus mono-substituted comparator [1]
0.36,0.359,1.14,7.8,10.2,4.8,18,0.305,0.294,0.305,97.8,145,15,,,,,,C/C=C/CNc1nc(C)nc2[nH]cnc12 [MTK-63A],
,,,,,,,,,0.769,,175,,substantial increase in AUC,7.26,7.76,8.41,,C/C=C/CNc1nc(C)nc2[nH]c(C)nc12 [MTK-115A],
0.057,0.0568,0.176,7.2,10.8,4.8,,0.13,0.122,,64.8,79.2,15,,,,,,"c1coc(CNc2ncnc3[nH]cnc23)c1 [kinetin, reference compound]",
